The text below walks through data of US12630560B2, “Solid forms, pharmaceutical compositions and preparation of heteroaromatic macrocyclic ether compounds” (Nuvalent, Inc., priority 2021, dated 2026).

What all share (format): physicochemical
The nature of series [1]: Compression test at 100 and 250 MPa (XRPD after compression). The method, then: Approximately 100 mg of Form 1 of Compound 1 was placed inside a FT-IR press, and a pressure of 100 MPa was applied and held for 60 seconds. The resulting material was analyzed by XRPD.
Approximately 100 mg of Form 1 of Compound 1 was placed inside the apparatus of the compression clamp. This apparatus was placed inside the compression clamp and a pressure of 250 MPa was applied and hold for 60 seconds. The resulting material was analyzed by XRPD.

The nature of series [2]: Dynamic vapour sorption (DVS). Conditions: for weight increase (DVS): relative humidity from about 0 to about 90%, about 25° C. The method, then:
Approximately, 10-20 mg of sample was placed into a mesh vapour sorption balance pan and loaded into a DVS Advantage dynamic vapour sorption balance by Surface Measurement Systems. The sample was subjected to a ramping profile from 40-90% relative humidity (RH) at 10% increments, maintaining the sample at each step until a stable weight had been achieved (dm/dt 0.004%, minimum step length 30 minutes, maximum step length 500 minutes) at 25° C. After completion of the sorption cycle, the sample was dried using the same procedure to 0% RH and then a second sorption cycle back to 40% RH. Two cycles were performed. The weight change during the sorption/desorption cycles were plotted, allowing for the hygroscopic nature of the sample to be determined. XRPD analysis was then carried out on any solid retained.

Series [3] in a line: 7-days stability studies of solid forms (storage, then XRPD and HPLC). The method, then:
Form 1 of Compound 1: Method. About 10 mg of Form 1 of Compound 1 was placed in a 2 ml vial and stored for 7 days under the following conditions: A) 40° C./75% RH (open vial); B) 25° C./60% RH (open vial); C) 80° C. (sealed vial). Solids were analyzed by XRPD and submitted for HPLC.
Form 2 of Compound 1: Method. Portions of Form 1 of Compound 1 (10 mg) were placed in 1.5 ml vials. One vial was stored for 7 days under each of the following conditions: A) 40° C./75% RH (open vial); B) 25° C./60% RH (open vial); C) 80° C. (sealed vial). Solids were analyzed by XRPD and submitted for HPLC.

Series [4] is described as follows: Stability studies of Form A of a besylate salt (XRPD). The conditions noted are these: 40° C. and 75% RH for 7 days. An excerpt:
No changes in form were observed by XRPD.

Series [5] in a line: Stability study of Compound 1 (Form 1) drug substance at three storage conditions. The method, then:
A stability study was conducted for Compound 1 (Form 1) at three storage conditions: (1) 5° C.±3° C., ambient relative humidity (RH), data collected at 0 and 1 month; (2) 25° C.±2° C., 60%±5% RH, data collected at 0, 1, 3, 6, 9, and 12 months; and (3) 40° C.±2° C., 75%±5% RH, data collected at 0, 1, 3, and 6 months.

Molecules are shown by their SMILES. Structures can show the parent of a compound that is named as a salt.

On to `CCn1ncc2c1-c1cnc(N)c(c1)O[C@H](C)c1cc(F)ccc1-c1nn(C)nc1C2` [Form 1 of Compound 1], for which the “stability to compression (crystalline form by XRPD)” value in series [1] (100 MPa for 60 seconds) and in series [1] (250 MPa for 60 seconds) was “stable” throughout. The hygroscopicity result in series [2] is listed as “non-hygroscopic”. Further, the “weight increase (DVS)” value in series [2] is “about 0.25%”. Also, the “% Purity by HPLC” value in series [3] (25° C./60% RH (open vial), 7 days) is recorded as 99.58%; in series [3] (40° C./75% RH (open vial), 7 days), 99.66%; in series [3] (80° C. (sealed vial), 7 days) it was 99.58%. In addition, in series [3] (all tested conditions (40° C./75% RH, 25° C./60% RH, 80° C.), 7 days), the “stability of the solid form” value is “stable under all tested conditions”. Also, in series [3] (all three samples: 40° C./75% RH, 25° C./60% RH, 80° C., one week), the “purity by HPLC after storage” value is more than 99.5%.
For the compound `CCn1ncc2c1-c1cnc(N)c(c1)O[C@H](C)c1cc(F)ccc1-c1nn(C)nc1C2` [Form 2], the “solid form stability by XRPD” value in series [3] (25° C./60% RH, 7 days) is reported as “stable”; in series [3] (40° C./75% RH, 7 days) it was “stable”. For the same compound, the “solid form by XRPD after storage” value in series [3] (80° C. (sealed vial), 7 days) is recorded as “correspond to that for Form 7”.
Turning to `CCn1ncc2c1-c1cnc(N)c(c1)O[C@H](C)c1cc(F)ccc1-c1nn(C)nc1C2` [Form 7], in series [2], the “weight increase (DVS)” value is on record as “about 0.27%”.
In the case of `CCn1ncc2c1-c1cnc(N)c(c1)O[C@H](C)c1cc(F)ccc1-c1nn(C)nc1C2` [Form A of a besylate salt of Compound 1], the “physical stability (form by XRPD)” value in series [4] was “physically stable”. The hygroscopicity entry in series [2] was “hygroscopic”. For the same compound, the “weight increase (DVS)” value is “about 2%” in series [2] and 2% in series [2] (listed as Form A of a Besylate Salt of Compound 1).
`CCn1ncc2c1-c1cnc(N)c(c1)O[C@H](C)c1cc(F)ccc1-c1nn(C)nc1C2` [Compound 1]: the “chemical and physical stability (description, assay, related substances, water content, polymorphic form, chiral purity)” value in series [5] (25° C.±2° C./60%±5% RH, 12 months) is “No meaningful changes”; in series [5] (40° C.±2° C./75%±5% RH, 6 months), “No meaningful changes”. Moreover, in series [5] (all time points), the “compliance with acceptance criteria (purity at least 97%, individual impurities ≤0.2%, total ≤2.0%, enantiomeric purity at least 99.5%, Form 1)” value is “complied with the acceptance criteria”.
